% of control data for one compound are collected here from ChEMBL document CHEMBL5465560, “Selectivity Literature for EUbOPEN Chemogenomic Library” (2024).

What all share (settings): at 10 µM
Experiment [1] concerns T1, Receptor-type tyrosine-protein kinase FLT3 (Homo sapiens), P36888 [D835Y].
T1 sequence (whole entry): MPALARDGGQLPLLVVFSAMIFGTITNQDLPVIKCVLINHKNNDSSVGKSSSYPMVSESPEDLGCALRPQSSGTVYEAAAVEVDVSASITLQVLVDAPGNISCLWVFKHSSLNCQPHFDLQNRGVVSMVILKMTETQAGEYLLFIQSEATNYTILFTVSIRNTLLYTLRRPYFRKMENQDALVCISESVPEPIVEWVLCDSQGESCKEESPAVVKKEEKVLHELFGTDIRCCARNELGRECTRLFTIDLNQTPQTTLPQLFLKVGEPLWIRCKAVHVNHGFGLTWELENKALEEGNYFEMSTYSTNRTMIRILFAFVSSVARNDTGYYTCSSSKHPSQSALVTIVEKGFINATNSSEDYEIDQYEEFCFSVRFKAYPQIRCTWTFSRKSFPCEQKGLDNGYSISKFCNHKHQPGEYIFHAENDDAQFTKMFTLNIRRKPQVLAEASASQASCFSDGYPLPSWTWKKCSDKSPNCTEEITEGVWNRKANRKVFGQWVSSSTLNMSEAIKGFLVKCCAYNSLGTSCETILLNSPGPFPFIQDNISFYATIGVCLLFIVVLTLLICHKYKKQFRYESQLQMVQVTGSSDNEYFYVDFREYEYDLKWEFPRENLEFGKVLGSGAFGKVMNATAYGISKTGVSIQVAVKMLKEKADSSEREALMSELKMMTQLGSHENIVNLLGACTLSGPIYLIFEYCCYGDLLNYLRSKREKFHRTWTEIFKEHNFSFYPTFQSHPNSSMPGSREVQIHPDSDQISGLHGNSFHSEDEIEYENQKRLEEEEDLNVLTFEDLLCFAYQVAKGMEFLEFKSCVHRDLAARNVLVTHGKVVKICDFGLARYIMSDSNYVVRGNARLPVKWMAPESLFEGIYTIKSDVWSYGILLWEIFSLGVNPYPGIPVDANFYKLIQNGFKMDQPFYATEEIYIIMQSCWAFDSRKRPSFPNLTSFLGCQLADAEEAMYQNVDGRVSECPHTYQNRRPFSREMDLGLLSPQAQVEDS
Put plainly: (§1) Selectivity interaction (KinomeScan (DiscoverX)) EUB0000618a FLT3.

Experiment [2] deals with Receptor-type tyrosine-protein kinase FLT3 (Homo sapiens) (UniProt P36888). The experiment is described as §1.
For experiment [3], the system named is T2, Receptor-type tyrosine-protein kinase FLT3 (Homo sapiens), P36888 [D835H].
T2 sequence (whole entry): T1 sequence (whole entry) with Y835H
The description is as §1.

Experiment [4] relates to T3, Receptor-type tyrosine-protein kinase FLT3 (Homo sapiens), P36888 [R834Q].
T3 sequence (whole entry): T1 sequence (whole entry) with R834Q, Y835D
The experiment is described as §1.

Residue numbers refer to the chain shown, from its start.

Turning to `O[C@H]1CC[C@H](Nc2ncc3nc(Nc4c(F)cc(F)cc4F)n([C@H]4CCOC4)c3n2)CC1`, the % of control in experiment [1] was 100%; in experiment [2] it was 97%; in experiment [3], 67%; in experiment [4], 91%.
